Measured values taken from the supplement of paper PMC11061612.

Key:
Assay in all cases: combination Emax (second highest fraction inhibited in the dose matrix, 72 h); higher = more inhibition; extreme values may be limits of the assay
[1] = tested on: CAL-62 (Thyroid Gland Carcinoma)
How it was run: (§1)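 Bliss excess equals the observed combination effect minus the expected value EA + EB − EA·EB, where EA and EB are the effects of each agent alone. Combination Emax is the second-highest inhibition within the matrix. Inhibition was scaled from CellTiter-Glo 2.0 luminescence, with 0 set by vehicle wells and 1 by blank wells, after 72 hours of two-drug dosing of cells plated in 1536-well plates.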

[2] = tested on: COLO-680N (Esophageal Squamous Cell Carcinoma)
How it was run: as §1

[3] = tested on: FADU (Head and Neck Carcinoma)
How it was run: as §1

[4] = tested on: GP5d (Colorectal Carcinoma)
How it was run: as §1

[5] = tested on: HEC-1 (Endometrial Carcinoma)
How it was run: as §1

[6] = tested on: IST-MES1 (Mesothelioma)
How it was run: as §1

[7] = tested on: LB996-RCC (Kidney Carcinoma)
How it was run: as §1

[8] = tested on: LK-2 (Squamous Cell Lung Carcinoma)
How it was run: as §1

[9] = tested on: MFE-280 (Endometrial Carcinoma)
How it was run: as §1

[10] = tested on: NCI-H2342 (Lung Adenocarcinoma)
How it was run: as §1

[11] = tested on: OAW-42 (Ovarian Carcinoma)
How it was run: as §1

[12] = tested on: OPM-2 (Plasma Cell Myeloma)
How it was run: as §1

[13] = tested on: PC-3_[JPC-3] (Lung Adenocarcinoma)
How it was run: as §1

[14] = tested on: PSN1 (Pancreatic Carcinoma)
How it was run: as §1

[15] = tested on: RCM-1 (Colorectal Carcinoma)
How it was run: as §1

[16] = tested on: RKN (Other Solid Carcinomas)
How it was run: as §1

[17] = tested on: SF268 (Low Grade Glioma)
How it was run: as §1

[18] = tested on: SF539 (Glioblastoma)
How it was run: as §1

[19] = tested on: SU-DHL-10 (B-Cell Non-Hodgkin's Lymphoma)
How it was run: as §1

[20] = tested on: WM793B (Melanoma)
How it was run: as §1

SMILES	combination Emax [1]	combination Emax [2]	combination Emax [3]	combination Emax [4]	combination Emax [5]	combination Emax [6]	combination Emax [7]	combination Emax [8]	combination Emax [9]	combination Emax [10]	combination Emax [11]	combination Emax [12]	combination Emax [13]	combination Emax [14]	combination Emax [15]	combination Emax [16]	combination Emax [17]	combination Emax [18]	combination Emax [19]	combination Emax [20]
Cn1cnc2c(F)c(Nc3ccc(Br)cc3Cl)c(C(=O)NOCCO)cc21 [Selumetinib] + CC(C)n1c(=O)n(C)c2cnc3cc(F)c(-c4ccc(OCCCN5CCCCC5)nc4)cc3c21 [AZD1390] (first compound max 10 µM, 7x7, partner max 0.3 µM)	0.219	0.143	0.271	0.683	0.0424	0.183	0.181	0.49	0.17	0.0339	0.192	0.192	0.159	0.738	0.616	0.379	0.139	0.359	0.0401	0.503
Cn1cnc2c(F)c(Nc3ccc(Br)cc3Cl)c(C(=O)NOCCO)cc21 [Selumetinib] + CCN(CCO)CCCOc1ccc2c(Nc3cc(CC(=O)Nc4cccc(F)c4)[nH]n3)ncnc2c1 [AZD2811] (first compound max 10 µM, 7x7, partner max 1 µM)	0.291	0.188	0.467	0.842	0.0639	0.269	0.343	0.795	0.161	0.365	0.194	0.356	0.189	0.708	0.656	0.352	0.275	0.501	0.738	0.528
Cn1cnc2c(F)c(Nc3ccc(Br)cc3Cl)c(C(=O)NOCCO)cc21 [Selumetinib] + C[C@@H]1COCCN1C2=NC(=NC(=C2)C3(CC3)[S@](=N)(=O)C)C4=C5C=CNC5=NC=C4 [AZD6738] (first compound max 10 µM, 7x7, partner max 10 µM)	0.672	0.203	0.404	0.861	0.298	0.269	0.556	0.39	0.151	0.483	0.507	0.847	0.309	0.736	0.656	0.45	0.49	0.855	0.911	0.703
CC(=O)Nc1cccc(-n2c(=O)n(C3CC3)c(=O)c3c(Nc4ccc(I)cc4F)n(C)c(=O)c(C)c32)c1 [Trametinib] + Cc1nc(-c2cn3c(n2)-c2ccc(-c4cnn(C(C)(C)C(N)=O)c4)cc2OCC3)n(C(C)C)n1 [Taselisib] (first compound max 1 µM, 7x7, partner max 10 µM)	0.765	0.501	0.837	0.907	0.346	0.434	0.955	0.608	0.939	0.5	0.969	1	0.882	0.946	0.871	0.544	0.484	0.989	0.977	0.855
CC1(C)CCC(CN2CCN(c3ccc(C(=O)NS(=O)(=O)c4ccc(NCC5CCOCC5)c([N+](=O)[O-])c4)c(Oc4cnc5[nH]ccc5c4)c3)CC2)=C(c2ccc(Cl)cc2)C1 [Venetoclax] + C1CN(CCC1(C(=O)N[C@@H](CCO)C2=CC=C(C=C2)Cl)N)C3=NC=NC4=C3C=CN4 [Capivasertib] (first compound max 1 µM, 7x7, partner max 3 µM)	0.172	0.0815	0.155	0.557	0.102	0.123	0.471	0.177	0.512	0.248	0.368	0.925	0.168	0.218	0.367	0.149	0.273	0.551	0.957	0.295
CC1(C)CCC(CN2CCN(c3ccc(C(=O)NS(=O)(=O)c4ccc(NCC5CCOCC5)c([N+](=O)[O-])c4)c(Oc4cnc5[nH]ccc5c4)c3)CC2)=C(c2ccc(Cl)cc2)C1 [Venetoclax] + C=CCn1c(=O)c2cnc(Nc3ccc(N4CCN(C)CC4)cc3)nc2n1-c1cccc(C(C)(C)O)n1 [AZD1775] (first compound max 1 µM, partner max 1 µM)	0.849	0.257	0.491	0.795	0.182	0.254	0.758	0.932	0.621	0.268	0.436	0.971	0.427	0.391	0.698	0.176	0.524	0.972	0.967	0.531
CC1(C)CCC(CN2CCN(c3ccc(C(=O)NS(=O)(=O)c4ccc(NCC5CCOCC5)c([N+](=O)[O-])c4)c(Oc4cnc5[nH]ccc5c4)c3)CC2)=C(c2ccc(Cl)cc2)C1 [Venetoclax] + CCN(CCO)CCCOc1ccc2c(Nc3cc(CC(=O)Nc4cccc(F)c4)[nH]n3)ncnc2c1 [AZD2811] (first compound max 1 µM, 7x7, partner max 1 µM)	0.252	0.187	0.219	0.513	0.16	0.198	0.339	0.851	0.371	0.217	0.204	0.689	0.182	0.222	0.372	0.176	0.328	0.481	0.807	0.258
CC1(C)CCC(CN2CCN(c3ccc(C(=O)NS(=O)(=O)c4ccc(NCC5CCOCC5)c([N+](=O)[O-])c4)c(Oc4cnc5[nH]ccc5c4)c3)CC2)=C(c2ccc(Cl)cc2)C1 [Venetoclax] + CN(C)CCCOc1ccc(-c2ccc3ncc4c(c3c2)n(C2CCOCC2)c(=O)n4C)cn1 [AZD0156] (first compound max 1 µM, 7x7, partner max 1 µM)	0.465	0.173	0.196	0.279	0.163	0.0799	0.222	0.321	0.423	0.203	0.204	0.574	0.25	0.3	0.45	0.107	0.298	0.292	0.137	0.244
CC1(C)CCC(CN2CCN(c3ccc(C(=O)NS(=O)(=O)c4ccc(NCC5CCOCC5)c([N+](=O)[O-])c4)c(Oc4cnc5[nH]ccc5c4)c3)CC2)=C(c2ccc(Cl)cc2)C1 [Venetoclax] + COc1cc(Nc2ncc3c(n2)-c2ccc(Cl)cc2C(c2c(F)cccc2OC)=NC3)ccc1C(=O)O [Alisertib] (first compound max 1 µM, 7x7, partner max 10 µM)	0.51	0.318	0.351	0.498	0.165	0.489	0.658	0.848	0.734	0.214	0.652	0.828	0.686	0.526	0.372	0.203	0.419	0.454	0.827	0.383
CC1(C)CCC(CN2CCN(c3ccc(C(=O)NS(=O)(=O)c4ccc(NCC5CCOCC5)c([N+](=O)[O-])c4)c(Oc4cnc5[nH]ccc5c4)c3)CC2)=C(c2ccc(Cl)cc2)C1 [Venetoclax] + C[C@@H]1COCCN1C2=NC(=NC(=C2)C3(CC3)[S@](=N)(=O)C)C4=C5C=CNC5=NC=C4 [AZD6738] (first compound max 1 µM, 7x7, partner max 10 µM)	0.83	0.278	0.614	0.739	0.41	0.396	0.654	0.494	0.423	0.265	0.561	0.943	0.442	0.396	0.78	0.226	0.64	0.87	0.912	0.814
CC1(C)CCC(CN2CCN(c3ccc(C(=O)NS(=O)(=O)c4ccc(NCC5CCOCC5)c([N+](=O)[O-])c4)c(Oc4cnc5[nH]ccc5c4)c3)CC2)=C(c2ccc(Cl)cc2)C1 [Venetoclax] + C[C@@H](Nc1cc(F)cc(F)c1)c1cc(C(=O)N(C)C)cc2c(=O)cc(N3CCOCC3)oc12 [AZD8186] (first compound max 1 µM, 7x7, partner max 3 µM)	0.119	0.111	0.128	0.228	0.0634	0.176	0.306	0.0674	0.371	0.265	0.125	0.513	0.298	0.313	0.28	0.18	0.127	0.287	0.735	0.36
CC1(C)CCC(CN2CCN(c3ccc(C(=O)NS(=O)(=O)c4ccc(NCC5CCOCC5)c([N+](=O)[O-])c4)c(Oc4cnc5[nH]ccc5c4)c3)CC2)=C(c2ccc(Cl)cc2)C1 [Venetoclax] + Cc1cc2ncnn2cc1Nc1ncc2c(n1)n(C1CCOCC1)c(=O)n2C [AZD7648] (first compound max 1 µM, 7x7, partner max 10 µM)	0.366	0.161	0.237	0.374	0.167	0.195	0.373	0.266	0.319	0.214	0.425	0.642	0.297	0.37	0.362	0.157	0.268	0.341	0.249	0.309
